Experimental data published in ChEMBL document CHEMBL1201862, “PubChem BioAssay data set” (2004).
Active and inactive are the calls of the source.

Assays:
Vero = experiment: cells; format: functional; details: Chlorocebus sabaeus
[1] = biological target: T1, Polyadenylate-binding protein 1 (Homo sapiens, UniProt P11940); experiment: MLLE binding blockers, Cy5 peptide tracer – biochemical, fluorescence polarization, Cy5-PAM2 peptide, secondary, miRNA deadenylation inhibitor project, dose response (AID 602260); format: functional; details: read-out: IC50_Mean
T1 sequence (P11940 whole entry, the tested form may be a part): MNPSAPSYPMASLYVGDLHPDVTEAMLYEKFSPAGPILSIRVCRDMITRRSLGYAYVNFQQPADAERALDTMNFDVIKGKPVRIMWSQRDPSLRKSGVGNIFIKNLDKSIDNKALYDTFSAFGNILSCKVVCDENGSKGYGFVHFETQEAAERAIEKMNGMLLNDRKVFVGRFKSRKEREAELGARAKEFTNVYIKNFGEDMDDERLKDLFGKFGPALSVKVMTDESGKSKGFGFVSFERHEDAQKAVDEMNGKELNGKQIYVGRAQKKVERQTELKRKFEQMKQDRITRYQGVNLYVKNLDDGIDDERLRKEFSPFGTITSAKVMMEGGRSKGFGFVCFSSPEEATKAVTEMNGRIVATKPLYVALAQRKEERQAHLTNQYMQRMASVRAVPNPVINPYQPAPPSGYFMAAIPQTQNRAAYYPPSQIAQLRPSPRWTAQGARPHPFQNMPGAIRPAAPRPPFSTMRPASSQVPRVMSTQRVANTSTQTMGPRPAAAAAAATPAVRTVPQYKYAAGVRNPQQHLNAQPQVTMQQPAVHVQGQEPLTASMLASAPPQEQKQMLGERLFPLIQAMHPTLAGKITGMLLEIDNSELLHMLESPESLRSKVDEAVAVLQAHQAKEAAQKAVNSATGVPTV

[2] = biological target: T1, Polyadenylate-binding protein 1; experiment: MLLE domain peptide-binding blockers, IC50 – biochemical, fluorescence polarization, FITC-PAM2 peptide, dose response (AID 602259); format: functional; details: read-out: IC50_Mean
BJ [3] = experiment: BJ-TERT fibroblast viability loss – cell-based, RAS-independent, luminescence, dose response (AID 1933); format: functional; details: Homo sapiens
BJ [4] = experiment: cells; format: functional, cell-based; details: Homo sapiens
BJ [5] = experiment: BJ-TERT-LT-ST fibroblast viability loss – cell-based, RAS-independent, luminescence, dose response (AID 1935); format: functional; details: Homo sapiens;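 note: BJ fibroblasts immortalized with TERT plus LT and ST oncogenes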
[6] = DRD fibroblast viability loss – cell-based, non-viral oncogenic, luminescence, dose response (AID 1934); format: functional; details: Homo sapiens
[7] = biological target: T2, Calpain-2 catalytic subunit (Sus scrofa, UniProt P43367); experiment: m-calpain protease blockers, concentration series – biochemical, fluorogenic peptide substrate, dose response (AID 1420); format: functional
T2 sequence (P43367 whole entry): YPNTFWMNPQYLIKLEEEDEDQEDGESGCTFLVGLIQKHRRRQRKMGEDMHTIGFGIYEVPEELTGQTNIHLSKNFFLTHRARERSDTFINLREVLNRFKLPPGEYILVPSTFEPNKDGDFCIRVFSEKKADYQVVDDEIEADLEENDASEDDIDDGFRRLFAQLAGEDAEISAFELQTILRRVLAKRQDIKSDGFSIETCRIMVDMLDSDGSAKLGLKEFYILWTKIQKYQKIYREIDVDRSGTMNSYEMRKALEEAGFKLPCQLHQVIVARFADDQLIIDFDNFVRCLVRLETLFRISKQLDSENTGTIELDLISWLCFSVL

[8] = biological target: T3, Replicative DNA helicase DnaB (Mycobacterium tuberculosis, UniProt P9WMR3); experiment: DnaB intein splicing inhibitors, dose response, biochemical, cell-free fluorescence (AID 449749); format: functional
T3 sequence (P9WMR3 whole entry): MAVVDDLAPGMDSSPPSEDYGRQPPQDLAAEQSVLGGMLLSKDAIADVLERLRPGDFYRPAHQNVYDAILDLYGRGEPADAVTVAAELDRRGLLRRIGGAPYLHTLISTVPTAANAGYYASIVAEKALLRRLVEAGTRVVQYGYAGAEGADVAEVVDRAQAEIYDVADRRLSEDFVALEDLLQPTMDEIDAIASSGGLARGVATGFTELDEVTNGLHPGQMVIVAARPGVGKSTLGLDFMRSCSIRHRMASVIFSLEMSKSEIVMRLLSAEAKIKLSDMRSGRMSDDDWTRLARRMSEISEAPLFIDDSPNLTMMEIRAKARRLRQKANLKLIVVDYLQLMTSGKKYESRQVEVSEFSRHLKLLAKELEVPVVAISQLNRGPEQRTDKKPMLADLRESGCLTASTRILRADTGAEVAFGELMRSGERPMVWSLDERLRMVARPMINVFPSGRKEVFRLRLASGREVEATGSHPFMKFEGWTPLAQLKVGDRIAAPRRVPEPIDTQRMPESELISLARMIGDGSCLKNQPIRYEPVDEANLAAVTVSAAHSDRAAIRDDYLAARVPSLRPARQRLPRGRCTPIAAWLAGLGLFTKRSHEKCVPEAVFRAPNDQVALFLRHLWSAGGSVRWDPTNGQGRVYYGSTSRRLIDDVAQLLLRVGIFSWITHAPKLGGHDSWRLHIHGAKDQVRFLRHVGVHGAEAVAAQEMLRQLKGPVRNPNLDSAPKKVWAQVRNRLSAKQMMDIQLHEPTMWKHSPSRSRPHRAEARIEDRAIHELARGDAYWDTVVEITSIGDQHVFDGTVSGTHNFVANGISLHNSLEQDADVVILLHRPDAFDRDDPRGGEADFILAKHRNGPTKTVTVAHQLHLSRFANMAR

Protein RecA = biological target: T4, Protein RecA (Mycobacterium tuberculosis, UniProt P9WHJ3); experiment: Fluorescence Cell-Free Homogeneous Dose Retest to Identify Inhibitors of RecA-Intein Splicing Activity. [Related pubchem assays (depositor defined):AID2097, AID2223, AID489010, AID492950]; format: functional
T4 sequence (P9WHJ3 whole entry): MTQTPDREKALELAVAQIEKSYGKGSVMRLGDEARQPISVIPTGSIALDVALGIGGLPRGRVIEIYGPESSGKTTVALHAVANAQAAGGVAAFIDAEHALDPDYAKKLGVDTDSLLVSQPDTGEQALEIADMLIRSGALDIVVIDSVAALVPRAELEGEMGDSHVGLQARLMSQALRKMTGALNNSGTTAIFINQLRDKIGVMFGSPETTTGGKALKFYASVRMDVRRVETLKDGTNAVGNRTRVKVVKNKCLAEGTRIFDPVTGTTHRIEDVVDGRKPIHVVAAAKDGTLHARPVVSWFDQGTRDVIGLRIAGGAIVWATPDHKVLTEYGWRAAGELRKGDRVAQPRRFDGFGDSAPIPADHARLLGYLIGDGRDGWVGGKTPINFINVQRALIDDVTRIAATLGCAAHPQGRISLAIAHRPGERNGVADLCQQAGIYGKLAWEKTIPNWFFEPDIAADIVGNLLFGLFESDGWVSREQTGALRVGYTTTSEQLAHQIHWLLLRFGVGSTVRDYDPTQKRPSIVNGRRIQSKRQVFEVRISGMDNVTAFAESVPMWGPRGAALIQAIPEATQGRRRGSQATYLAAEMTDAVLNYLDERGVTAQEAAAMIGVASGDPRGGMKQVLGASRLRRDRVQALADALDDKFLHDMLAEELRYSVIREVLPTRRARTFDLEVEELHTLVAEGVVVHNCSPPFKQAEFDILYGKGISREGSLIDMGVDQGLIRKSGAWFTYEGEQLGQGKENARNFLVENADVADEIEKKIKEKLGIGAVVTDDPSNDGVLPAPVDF

[9] = Trypanosoma cruzi growth suppression in host cells – NIH3T3 host cells, beta-gal luminescence, confirmation (AID 2044); format: functional, cell-based;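 note: intracellular parasites grown in NIH/3T3 mouse fibroblasts as host cells; luminescent beta-galactosidase reporter signal from transgenic T. cruzi replicating inside host cells; inhibitors lower the luminescence signal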
[10] = NIH3T3 cell viability loss – ATP luminescence, mouse fibroblasts, counter-screen, dose response (AID 2010); format: functional, cell-based;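 note: cells exposed to compound for about 90 hours before reading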
[11] = system: Streptococcus sp. 'group A'; experiment: Streptococcus pyogenes SK(-)GAS viability under kanamycin – luminescence, BacTiterGlo, confirmation, counter-screen for streptokinase expression inhibitor project, dose response (AID 1900); format: functional, organism-based
[12] = viability of PTEN-deleted HCT116 cells – cell-based, HCT116 PTEN knockout, dose response (AID 1047); format: functional;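 note: HCT116 colon tumor cells with PTEN knocked out; cells exposed to compound for 60 hours before readout; potency for loss of cell viability measured by luminescence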
[13] = viability of HCT116 lacking mutant beta-catenin – cell-based, human colon tumor, dose response (AID 1045); format: functional;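 note: HCT116 colon tumor cells with beta catenin knocked out; cells exposed to compound for 60 hours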
Streptococcus = experiment: GAS UMAA2166 growth inhibition – luminescence, BacTiterGlo, counter-screen for streptokinase expression inhibitor project, dose response (AID 1915); format: functional, organism-based;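 note: potency for reduction of bacterial viability or growth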
[14] = Luminescence Cell-Based Dose Confirmation HTS to Identify Activators of 5'UTR Stem-Loop Driven Alpha-Synuclein mRNA Translation in H4 Neuroglioblastoma Cells. [Related pubchem assays: 1829 (Project Summary), 1814 (Primary HTS)]; format: functional
[15] = Luminescence Cell-Based Dose Response HTS to Identify Activators of Luciferase Translation or Activity in H4 […] Cells. [Related pubchem assays: 1829 (Project Summary), 1814 (Primary HTS)]; format: functional
H4 = experiment: Luminescence Cell-Based Dose Response HTS to Identify Activators of 5'UTR Stem-Loop Driven Prion Protein mRNA Translation in H4 Neuroglioblastoma Cells. [Related pubchem assays: 1829 (Project Summary), 1814 (Primary HTS)]; format: functional; details: Homo sapiens
[16] = biological target: FAD-linked sulfhydryl oxidase ALR (Homo sapiens, UniProt P55789); experiment: ALR-catalysed DTT oxidation blockers – biochemical, H2O2 detection, luminescence, cherry-pick, dose response (AID 493248)
FAD-linked sulfhydryl oxidase ALR, sequence (P55789 whole entry): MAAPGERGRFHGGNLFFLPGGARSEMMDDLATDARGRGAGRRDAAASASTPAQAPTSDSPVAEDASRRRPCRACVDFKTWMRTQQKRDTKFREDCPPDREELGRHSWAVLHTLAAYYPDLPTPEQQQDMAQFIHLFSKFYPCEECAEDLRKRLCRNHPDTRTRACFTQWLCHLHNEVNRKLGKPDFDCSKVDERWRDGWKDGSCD

COc1cccc(/C=C2\SC(=S)N(CCC(=O)N3CCCCC3CCO)C2=O)c1 (centres undefined)
CC50 (Vero): 15.9 µM (active)

COc1cc(C(=O)NC2=NCCS2)ccc1OCc1c(C)noc1C
IC50 [1]: > 66 µM (inactive)
IC50 [2]: > 66 µM (inactive)

O=Cc1[nH]c2ccccc2c1N(C(=O)CCl)c1ccc([N+](=O)[O-])cc1
EC50 (BJ [3]): 5.65 µM (inconclusive)
EC50 (BJ [4]): 7.89 µM (active)
EC50 (BJ [5]): 4.03 µM (active)
EC50 [6]: 5.75 µM (inconclusive)

CCn1c(COc2ccc(Cl)cc2)nnc1SC1CCc2ccccc2C1=O (centres undefined)
IC50 [7]: 7.24 µM (not active)
AC50 [8]: 9.31 µM (active)
EC50 (Protein RecA): 25.4 µM (active)

COc1ccc(CNC(=O)CN(Cc2ccc(C)cc2)C(=O)c2csnn2)cc1
IC50 [1]: > 66 µM (inactive)
IC50 [2]: > 66 µM (inactive)

O=C(Nc1ccccc1N1CCCCC1)c1ccc(-c2ccc(Cl)cc2)o1
EC50 (BJ [3]): 3.11 µM (inconclusive)
EC50 (BJ [4]): 40.9 µM (inconclusive)
EC50 (BJ [5]): 46.9 µM (inconclusive)
EC50 [6]: 2.91 µM (active)

O=C(Nc1ccc(Oc2ccccc2)nc1)C1CCCCN1Cc1ccco1 (centres undefined)
EC50 (BJ [3]): 8.7 µM (inconclusive)
EC50 (BJ [4]): 35.3 µM (active)
EC50 (BJ [5]): 5.04 µM (inconclusive)
EC50 [6]: 17.3 µM (inconclusive)

O=C(CSC1=Nc2ccccc2C2=NC(CC(=O)NCc3ccco3)C(=O)N12)NCc1ccco1 (centres undefined)
IC50 [1]: > 66 µM (inactive)
IC50 [2]: > 66 µM (inactive)

CC(C)(C)c1ccc(C(=O)NC(=S)Nc2ccc(N3CCOCC3)cc2)cc1
EC50 (BJ [3]): 18.2 µM (active)
EC50 (BJ [4]): 148 µM (inconclusive)
EC50 (BJ [5]): > 150 µM (not active)
EC50 [6]: > 150 µM (not active)

O=C(O)C1CSC(c2ccncc2)N1 (centres undefined)
IC50 [1]: > 66 µM (inactive)
IC50 [2]: > 66 µM (inactive)

O=C(CCl)N(CCc1ccccc1)CCc1ccccc1
EC50 [9]: 2.07 µM (active)
EC50 [10]: > 30 µM (not active)
AC50 [8]: 10 µM (active)
EC50 (Protein RecA): 2.36 µM (active)
CC50 (Vero): 8.89 µM (active)

CCOc1ccccc1CNC(=O)c1cn(C)c(=O)c2c1c1ccccc1n2C
CC50 (Vero): > 25 µM (active)

Cc1cccn2c(=O)c3cc(C(=O)NCc4ccco4)c(=N)n(CCOCCO)c3nc12
IC50 [1]: > 66 µM (inactive)
IC50 [2]: 15.2 µM (active)

CCC(CC)c1nnc(NC(=O)CC(C)c2ccccc2)s1 (centres undefined)
EC50 (BJ [3]): > 150 µM (not active)
EC50 (BJ [4]): > 150 µM (not active)
EC50 (BJ [5]): > 75 µM (inconclusive)
EC50 [6]: > 150 µM (not active)

CC1=Nc2cc(C(=O)NCCCOC(C)C)ccc2Sc2ccccc21
EC50 (BJ [3]): 15.4 µM (active)
EC50 (BJ [4]): 57.5 µM (active)
EC50 (BJ [5]): > 150 µM (inconclusive)
EC50 [6]: 18.6 µM (active)

CC1(C)Cc2c(c(-c3ccco3)[nH]c(=O)c2C#N)CS1
IC50 [1]: > 66 µM (inactive)
IC50 [2]: 26 µM (inactive)

Cc1ccccc1SCC(=O)NC1CCOC1=O (centres undefined)
IC50 [1]: > 66 µM (inactive)
IC50 [2]: > 66 µM (inactive)

Cc1cccc(-c2nnc(NC(=O)c3ccc(Cl)cc3)o2)c1
EC50 [11]: 0.099 µM (active)
EC50 [12]: 23.1 µM (active)
EC50 [13]: 17.4 µM (active)
EC50 (Streptococcus): 0.81 µM (active)
CC50 (Vero): > 25 µM (active)

Cc1ccc2ncccc2c1NC(=S)NC(=O)c1ccccc1
IC50 [1]: > 66 µM (inactive)
IC50 [2]: > 66 µM (inactive)

C=COC(=O)NC1CCc2cc(OC)c(OC)c(OC)c2-c2ccc(SC)c(=O)cc21 (centres undefined)
CC50 (Vero): < 0.05 µM (active)

Cn1c(CCC(=O)O)nc2cc(S(=O)(=O)N3CCCCC3)ccc21
IC50 [1]: > 66 µM (inactive)
IC50 [2]: > 66 µM (inactive)

Cc1ccc(S(=O)(=O)N2C[C@H]3n4c(=O)ccc(=O)n4C[C@H](OC(=O)NCC4CCCCC4)[C@@]3(O)C2)cc1
CC50 (Vero): > 25 µM (active)

CN(C)c1n/c(=N/c2cccc(Cl)c2)ss1
CC50 (Vero): 21.6 µM (active)

CCCCCC(=O)Nc1ccc(N2CCN(CC)CC2)c(Cl)c1
EC50 [14]: 15.5 µM (active)
EC50 [15]: 5.11 µM (active)
EC50 (H4): 5.08 µM (active)
IC50 [7]: 18.8 µM (not active)

O=C1Cc2c(-c3ccccc3)cc(-c3cccc(Cl)c3)nc2-c2ccccc2N1
CC50 (Vero): 11.4 µM (active)

CC(=O)Nc1ccc(C2=NN(C)/C(=N/Cc3ccccc3)SC2)cc1
IC50 [7]: 8.93 µM (not active)
AC50 [16]: 3.9 µM (active)

CCCCCOc1ccc(/C(C)=N/NC2=NCCN2)cc1
CC50 (Vero): > 25 µM (active)

CC(=O)O[C@H]1C[C@]2(O)[C@@H]3CC[C@@H]4C[C@@H](O)CC[C@]4(C)[C@H]3CC[C@]2(C)[C@H]1C1=CC(=O)OC1
CC50 (Vero): 0.46 µM (active)

Cc1nc(NC(=O)c2ccco2)sc1C(=O)O
EC50 (BJ [3]): 7.4 µM (active)
EC50 (BJ [4]): 4.14 µM (active)
EC50 (BJ [5]): > 150 µM (inconclusive)
EC50 [6]: 10.3 µM (active)

COc1ccc(C(=O)/C=C/c2ccccc2)c(OC)c1
CC50 (Vero): 12.4 µM (active)
